Target: T1, TLR7 (Homo sapiens, UniProt Q9NYK1)
T1 construct: expressed in transfected cells; host or cells: HEK cells carrying TLR7 and an NF-kB reporter read with Steady-Glo
T1 sequence (Q9NYK1 27-1049): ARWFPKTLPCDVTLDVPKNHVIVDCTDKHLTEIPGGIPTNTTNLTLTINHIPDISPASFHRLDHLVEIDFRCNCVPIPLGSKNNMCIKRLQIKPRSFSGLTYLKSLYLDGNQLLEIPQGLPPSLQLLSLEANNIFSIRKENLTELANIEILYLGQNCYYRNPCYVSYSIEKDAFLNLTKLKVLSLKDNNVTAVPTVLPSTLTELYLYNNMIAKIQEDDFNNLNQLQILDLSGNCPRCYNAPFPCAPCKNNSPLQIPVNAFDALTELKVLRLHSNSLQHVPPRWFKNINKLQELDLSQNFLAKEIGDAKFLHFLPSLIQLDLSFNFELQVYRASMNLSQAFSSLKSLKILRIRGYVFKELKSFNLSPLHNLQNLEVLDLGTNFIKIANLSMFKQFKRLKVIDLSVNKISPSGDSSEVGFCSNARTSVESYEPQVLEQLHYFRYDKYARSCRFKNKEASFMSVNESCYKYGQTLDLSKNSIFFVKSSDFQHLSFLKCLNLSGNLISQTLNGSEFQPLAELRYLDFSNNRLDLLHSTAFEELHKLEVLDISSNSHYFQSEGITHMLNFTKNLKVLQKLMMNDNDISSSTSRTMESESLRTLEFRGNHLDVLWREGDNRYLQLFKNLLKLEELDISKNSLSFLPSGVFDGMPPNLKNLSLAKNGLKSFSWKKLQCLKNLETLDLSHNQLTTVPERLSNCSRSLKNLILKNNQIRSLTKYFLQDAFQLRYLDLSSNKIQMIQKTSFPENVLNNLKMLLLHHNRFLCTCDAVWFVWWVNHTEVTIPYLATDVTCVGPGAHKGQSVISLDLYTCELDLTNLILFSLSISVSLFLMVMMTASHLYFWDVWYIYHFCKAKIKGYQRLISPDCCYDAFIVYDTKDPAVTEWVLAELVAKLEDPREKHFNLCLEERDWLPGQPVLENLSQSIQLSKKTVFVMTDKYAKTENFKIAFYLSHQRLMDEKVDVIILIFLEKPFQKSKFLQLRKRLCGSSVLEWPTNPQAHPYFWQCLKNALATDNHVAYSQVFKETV
Assay: HEK Cell Assay (TLR7/NFKb HEK reporter cells, Steady-Glo)
Assay type: cell-based
Details: compound 30 min, then R*48 agonist 5 hours, Steady-Glo readout, read-out: Potency
Description: Example 32: HEK Cell Assay
Into 384 CulturePlates (Corning 3707) was placed 5000 c/w of TLR7/NFKb HEK cells in 30 uL DMEM without Phenil red (gibco #31053) and 10% i.a. FCS and 2 mM L-ZGLutamin. The cells were incubated for 24 h at 37 degrees Celsius, 10% carbon dioxide and 90% relative humidity, 3 uL of controls, standards, and compounds were dispensed to wells, incubated for 30 min then 3 uL of R*48 agonist in 20 mM Hepes was added. After incubation for 5 hours, it was allowed to stand at room temperature for 15 min, 10 uL of Steady-Glo substrate reagent was added and shake assay plate for 5 min at 1500 rpm. The assay plate was allowed to sit for 30 min at room temperature and then read plate on EnVision.

Row | IC50 | Compound
1 | < 1000 nM | CC1CC(c2ccc(C#N)c3ncccc23)CN(C(=O)CC2CCN(C)CC2)C1 (stereo in doubt) [Compound 55, 5-{(3S,5R)-5-Methyl-1-[2-(1-methyl-piperidin-4-yl)-acetyl]-piperidin-3-yl}-quinoline-8-carbonitrile]
2 | < 1000 nM | C[C@@H]1C[C@H](c2ccc(C#N)c3ncccc23)CN(C(=O)CC2CCN(C)CC2)C1 [Compound 1]
3 | < 1000 nM | C[C@@H]1CC(c2ccc(C#N)c3ncccc23)CN(C(=O)CC2CCN(C)CC2)C1 (stereo partly shown) [Compound 2]
4 | < 1000 nM | CC1CC(c2ccc(C(F)(F)F)c3ncccc23)CN(C(=O)CC2CCN(C)CC2)C1 (stereo not shown) [Compound 3, 2-(1-Methyl-piperidin-4-yl)-1-[3-methyl-5-(8-trifluoromethyl-quinolin-5-yl)-piperidin-1-yl]-ethanone]
5 | 1000 to 20000 nM | CC1CC(c2ccc(C(F)(F)F)c3ncccc23)CN(C(=O)CCN2CCN(C)CC2)C1 (stereo not shown) [Compound 11, 3-(4-Methyl-piperazin-1-yl)-1-[3-methyl-5-(8-trifluoromethyl-quinolin-5-yl)-piperidin-1-yl]-propan-1-one]
6 | > 20000 nM | C[C@@H]1CC(c2ccc(C(F)(F)F)c3ncccc23)CN(C(=O)CCn2cccn2)C1 (stereo partly shown) [Compound 12]
7 | > 20000 nM | CC1C[C@@H](c2ccc(C(F)(F)F)c3ncccc23)CN(C(=O)CN2CCOCC2)C1 (stereo partly shown) [Compound 17]
8 | < 1000 nM | CC1CC(c2ccc(C(F)(F)F)c3ncccc23)CN(C(=O)CC2CC3CCC(C2)N3C)C1 (stereo not shown) [Compound 18, 2-(8-Methyl-8-aza-bicyclo[3.2.1]oct-3-yl)-1-[3-methyl-5-(8-trifluoromethyl-quinolin-5-yl)-piperidin-1-yl]-ethanone]
9 | > 20000 nM | CC1C[C@@H](c2ccc(C#N)c3ncccc23)CN(C(=O)Cc2cccnc2)C1 (stereo partly shown) [Compound 21]
10 | < 1000 nM | CC1CC(c2ccc(Cl)c3ncccc23)CN(C(=O)CC2CCN(C)CC2)C1 (stereo not shown) [Compound 22, 1-[3-(8-Chloro-quinolin-5-yl)-5-methyl-piperidin-1-yl]-2-(1-methyl-piperidin-4-yl)-ethanone]
11 | < 1000 nM | CC1CC(c2ccc(C#N)c3ncccc23)CN(C(=O)CCC2CCN(C)CC2)C1 (stereo not shown) [Compound 23]
12 | 1000 to 20000 nM | CC1C[C@H](c2ccc(C#N)c3ncccc23)CN(C(=O)CCc2cccnc2)C1 (stereo partly shown) [Compound 25]
13 | > 20000 nM | CC1C[C@H](c2ccc(C#N)c3ncccc23)CN(C(=O)CC(F)(F)F)C1 (stereo partly shown) [Compound 27]
14 | < 1000 nM | C[C@@H]1C[C@H](c2ccc(C#N)c3ncccc23)CN(C(=O)CC2CCN(C)C2)C1 (stereo partly drawn) [Compound 35, cis-5-Methyl-1-[2-(1-methyl-pyrrolidin-3-yl)-acetyl]-piperidin-3-yl-quinoline-8-carbonitrile]
15 | < 1000 nM | C[C@@H]1C[C@H](c2ccc(C(F)(F)F)c3ncccc23)CN(C(=O)CC2CCN(C)CC2)C1 [Compound 42, 2-(1-Methyl-piperidin-4-yl)-1-[(3R,5R)-3-methyl-5-(8-trifluoromethyl-quinolin-5-yl)-piperidin-1-yl]-ethanone]
16 | 1000 to 20000 nM | C[C@H]1C[C@@H](c2ccc(C(F)(F)F)c3ncccc23)CN(C(=O)CC2CCN(C)CC2)C1 [Compound 43, 2-(1-Methyl-piperidin-4-yl)-1-[(3S,5S)-3-methyl-5-(8-trifluoromethyl-quinolin-5-yl)-piperidin-1-yl]-ethanone]
17 | < 1000 nM | C[C@@H]1C[C@H](c2ccc(C(F)(F)F)c3ncccc23)CN(C(=O)CCN2CCN(C)CC2)C1 [Compound 44, 3-(4-Methyl-piperazin-1-yl)-1-[(3R,5R)-3-methyl-5-(8-trifluoromethyl-quinolin-5-yl)-piperidin-1-yl]-propan-1-one]
18 | < 1000 nM | CC(C)N1CCC(CC(=O)N2C[C@H](C)C[C@H](c3ccc(C#N)c4ncccc34)C2)CC1 [Compound 46, 5-{(3R,5R)-1-[2-(1-Isopropyl-piperidin-4-yl)-acetyl]-5-methyl-piperidin-3-yl}-quinoline-8-carbonitrile]
19 | 1000 to 20000 nM | CC(C)N1CCC(CC(=O)N2C[C@@H](C)C[C@@H](c3ccc(C#N)c4ncccc34)C2)CC1 [Compound 47, 5-{(3S,5S)-1-[2-(1-Isopropyl-piperidin-4-yl)-acetyl]-5-methyl-piperidin-3-yl}-quinoline-8-carbonitrile]

Row | IC50 | Compound
20 | > 20000 nM | COC(=O)CCN1CC(C)CC(c2ccc(C#N)c3ncccc23)C1 (stereo not shown) [Compound 48, 3-[3-(8-Cyano-quinolin-5-yl)-5-methyl-piperidin-1-yl]-propionic acid methyl ester]
21 | > 20000 nM | CC1CC(c2ccc(C#N)c3ncccc23)CN(CCC(N)=O)C1 (stereo not shown) [Compound 49, 3-[3-(8-Cyano-quinolin-5-yl)-5-methyl-piperidin-1-yl]-propionamide]
22 | > 20000 nM | CNC(=O)CCN1CC(C)CC(c2ccc(C#N)c3ncccc23)C1 (stereo not shown) [Compound 50]
23 | < 1000 nM | CC1CC(c2ccc(C#N)c3ncccc23)CN(CC2CCN(C)C2)C1 (stereo not shown) [Compound 51]
24 | < 1000 nM | CC1CC(c2ccc(C#N)c3ncccc23)CN(CC2CCN(C)CC2)C1 (stereo not shown) [Compound 52]
25 | < 1000 nM | C[C@@H]1C[C@@H](c2ccc(C#N)c3ncccc23)CN(C(=O)CC2CCN(C)CC2)C1 [Compound 54, 5-{(3S,5R)-5-Methyl-1-[2-(1-methyl-piperidin-4-yl)-acetyl]-piperidin-3-yl}-quinoline-8-carbonitrile]
26 | 1000 to 20000 nM | C[C@H]1C[C@@H](c2ccc(C#N)c3ncccc23)CN(C(=O)CC2CCN(C)CC2)C1 [Compound 56]
27 | > 20000 nM | CC1CC(c2ccc(C(F)(F)F)c3ncccc23)CN(c2ccon2)C1 (stereo not shown) [Compound 57, 5-(1-Isoxazol-3-yl-5-methyl-piperidin-3-yl)-8-trifluoromethyl-quinoline]
28 | 1000 to 20000 nM | CC1CC(c2ccc(C(F)(F)F)c3ncccc23)CN(c2cnn(C)c2)C1 (stereo not shown) [Compound 58, 5-[5-Methyl-1-(1-methyl-1H-pyrazol-4-yl)-piperidin-3-yl]-8-trifluoromethyl-quinoline]
29 | 1000 to 20000 nM | CC1CC(c2ccc(C(F)(F)F)c3ncccc23)CN(c2ncco2)C1 (stereo not shown) [Compound 59, 5-(5-Methyl-1-oxazol-2-yl-piperidin-3-yl)-8-trifluoromethyl-quinoline]
30 | 1000 to 20000 nM | C[C@@H]1C[C@@H](c2ccc(C#N)c3ncccc23)CN(C(=O)[C@@H](N)C2CC2)C1 [Compound 60, trans-1-((S)-2-Amino-2-cyclopropyl-acetyl)-5-methyl-piperidin-3-yl-quinoline-8-carbonitrile]
31 | 1000 to 20000 nM | C[C@@H]1C[C@H](c2ccc(C#N)c3ncccc23)CN(C(=O)[C@@H](N)C2CC2)C1 [Compound 61]
32 | < 1000 nM | C[C@@H]1C[C@H](c2ccc(C#N)c3ncccc23)CN(C(=O)C[C@@H]2[C@H]3CN(C)C[C@@H]23)C1 [Compound 78]
33 | < 1000 nM | Cc1ccc([C@@H]2C[C@@H](C)CN(C(=O)CC3CCN(C)CC3)C2)c2cccnc12 [Compound 80, 1-[(3R,5S)-3-Methyl-5-(8-methyl-quinolin-5-yl)-piperidin-1-yl]-2-(1-methyl-piperidin-4-yl)-ethanone]
34 | < 1000 nM | Cc1ccc([C@H]2C[C@@H](C)CN(C(=O)CC3CCN(C)CC3)C2)c2cccnc12 [Compound 81, 1-[(3R,5R)-3-Methyl-5-(8-methyl-quinolin-5-yl)-piperidin-1-yl]-2-(1-methyl-piperidin-4-yl)-ethanone]
35 | 1000 to 20000 nM | Cc1ccc([C@@H]2C[C@H](C)CN(C(=O)CC3CCN(C)CC3)C2)c2cccnc12 [Compound 82, 1-[(3S,5S)-3-Methyl-5-(8-methyl-quinolin-5-yl)-piperidin-1-yl]-2-(1-methyl-piperidin-4-yl)-ethanone]
36 | < 1000 nM | Cc1ccc([C@H]2C[C@H](C)CN(C(=O)CC3CCN(C)CC3)C2)c2cccnc12 [Compound 83, 1-[(3S,5R)-3-Methyl-5-(8-methyl-quinolin-5-yl)-piperidin-1-yl]-2-(1-methyl-piperidin-4-yl)-ethanone]
37 | < 1000 nM | Cc1ccc([C@H]2C[C@@H](C)CN(C(=O)CC3C4CC3CN(C)C4)C2)c2cccnc12 (stereo partly drawn) [Compound 84, 2-(3-Methyl-3-aza-bicyclo [3.1.1]hept-6-yl)-1-[(3R,5R)-3-methyl-5-(8-methyl-quinolin-5-yl)-piperidin-1-yl]-ethanone]

Reference: patent US11512069B2, “TLR7/8 antagonists and uses thereof” (Merck Patent GmbH, priority 2016, dated 2022)
